Laboratory results taken from paper PMC11477141, “Chemokine Receptor N-Terminus Charge Dictates Reliance on Post-Translational Modifications for Effective Ligand Capture and Following Boosting by Defense Peptides” (International Journal of Molecular Sciences, 2024).
Where no end group is shown, it is not given here.

System: CCR5-1like
Assay: BRET CAMYEL Gαi signaling via chimeric receptor M1-CCR5-1like
Assay type: cell-based, human
Settings: n = 3
Text: To finally determine if the lack of acidic amino acids in the CCR5 N-terminus can explain the dependency of this receptor on O-glycosylation for effective ligand interaction, we constructed a CCR5 receptor chimera, where the most acidic N-terminal region of CCR1 was inserted into the CCR5 N-terminus, creating the chimeric receptor CCR5-1like (Figure 7).
Figure 7 Receptor N-termini representing CCR1, CCR5, and the chimeric CCR5-1like. The CCR1 N-terminus contains a lot of acidic amino acids (outlined in red) in the form of aspartic acid (D) and glutamic acid (E), whereas CCR5 only contains a few. The chimeric receptor CCR5-1like that contains part of the CCR1 receptor N-terminus (ETTTDYDE) resembles CCR1 with regard to acidic amino acid content and spacing, but they are not the same.
BRET measurements of Gαi signaling and β-arrestin recruitment: Cells were seeded in 6-well plates (500,000 cells/well) and transiently transfected the following day. For BRET measurements of Gαi signaling, cells were transfected with vectors encoding the human chemokine receptors as indicated (160 ng/well) and the CAMYEL sensor (cAMP sensor, YFP-Epac-RLuc) (840 ng/well) using Lipofectamine (6 µL/well). Briefly, DNA was dissolved in 125 µL OPTI-MEM and Lipofectamine was dissolved in 125 µL OPTI-MEM. The DNA and Lipofectamine solutions were combined into a transfection mixture. The transfection mixture was added dropwise to cells incubated in OPTI-MEM (1 mL/well). Transfections were terminated after 5 h by adding 1 mL of fresh culture medium on top of the OPTI-MEM. The following day the cells were loosened from the plates in PBS with 5 mM glucose and subsequently aliquoted in white 96-well iso plates (~25,000 cells/well). When using C21TP variants and defense peptides (hBD2 and histatin), these were added to a final concentration of 10 μM/well, while an equal amount of PBS was added to control cells. The bioluminescence substrate coelenterazine was added to a final conc. of 5 µM. After 10 min, varying ligand concentrations were added. For BRET measurements of Gαi signaling, forskolin was added 5 min after the addition of the ligand, to a final conc. of 5 µM. The plates were kept in the dark at all times. A Perkin Elmer Envision machine was used for measuring the emission signals at 530 and 480 nm. The BRET signal is determined as the ratio eYFP (530 nm)/Rluc (480 nm).
BRET principle with CAMYEL: For quantification of signaling initiated immediately downstream of receptor activation, we used the cAMP binding CAMYEL sensor to perform bioluminescence resonance energy transfer (BRET) based assays. In this assay we measure changes in intracellular cAMP levels in response to receptor activation. Activation of chemokine receptors lead to a decrease in cAMP through inhibition of adenylate cyclase (AC). In the current setup we initially add forskolin that stimulates AC directly to induce an increase in intracellular cAMP, and we then measure the ability of a ligand (chemokine) to counteract the forskolin-induced increase in cAMP. The cAMP sensor (CAMYEL cAMP sensor, YFP-Epac-RLuc) carries the donor Renilla luciferase (Rluc) and the acceptor YFP. Coelenterazine is a substrate for Rluc that will emit light at around 475 nm upon enzymatic cleavage catalyzed by Rluc. When Rluc and YFP are in close proximity, the energy from the emitted light from coelenterazine can be transferred to YFP, resulting in an excitation of YFP, leading to a BRET signal around 525 nm. […]

[1] = HEK293 WT, DeltaSia and sC cells, 10 µM peptide

boosting of CCL3 signaling via M1-CCR5-1like [1]	boosting of CCL8 signaling via M1-CCR5-1like [1]	Substance	Gαi signaling via M1-CCR5-1like in DeltaSia and sC cells compared to WT cells (HEK293 DeltaSia and sC)
absent	absent	RKDRGASKTGKKGKGSKGCKRTERSQTPKGP [C21TP^81-111]	–
–	–	CCL5: human chemokine from Peprotech, overall basic	persists in DeltaSia and sC to almost the same high level as observed in WT cells
